Results published in PMC9411207, “Designed peptides as nanomolar cross-amyloid inhibitors acting via supramolecular nanofiber co-assembly” (Nature Communications, 2022).
Read-outs that look alike come from different tables or passages of the source. Square brackets hold non-standard residues; d marks the D form. Peptide text beside a SMILES is read from it. NMeF = CN[C@@H](Cc1ccccc1)C(=O)O; NMeL = CN[C@@H](CC(C)C)C(=O)O; NMeV = CN[C@H](C(=O)O)C(C)C; Nle = CCCC[C@H](N)C(=O)O

How the values were obtained:
[1] = target: T1, N-terminal FITC-labeled Aβ42 (Homo sapiens, UniProt P05067); test: Fluorescence spectroscopic titration of FITC-Aβ42 with ACMs; format: binding
T1 construct: the 40(42)-residue peptide Aβ40(42); purchased Bachem
Procedure: (§1) Fluorescence spectroscopic studies were performed with a Jasco FP-6500 fluorescence spectrophotometer (software: Spectra Manager V1.54.03 (Build 1)) using previously established protocols[12],[20],[25],[26],[32]. Briefly, excitation was at 492 nm and spectra were measured between 500 and 600 nm. All titrations were performed in freshly made solutions of synthetic N-terminal fluorescently-labeled peptide (5 nM) and various amounts of unlabeled peptide in 10 mM sodium phosphate buffer, pH 7.4 (1% HFIP) within 2–5 min following solution preparation as described in refs. [20], [25], [26]. Under these experimental conditions, freshly made solutions of Fluos-IAPP and FITC-Aβ42 (5 nM) consist mostly of monomers[25],[26],[32] and the same was found for Fluos-ACMs (5 nM) (e.g., Supplementary Fig. 5e). Apparent binding affinities (app. KDs) were estimated by using 1/1 binding models (software: OriginPro 2016G, Origin 2021, and GraFit (v.5)) as described in refs. [20], [25], [26], [32]. However, due to the high self-assembly propensities of involved peptides, more complex models might also apply. Determined app. KDs are means (±SD) from three binding curves derived from three independent titration assays.

[2] = target: T2, N-terminal fluorescein-labeled IAPP (Homo sapiens, UniProt P10997); test: Fluorescence spectroscopic titration of Fluos-IAPP with ACMs; format: binding
T2 construct: made in house; host or cells: chemical synthesis (Fmoc-SPPS)
T2 sequence (P10997 34-70 limits assumed): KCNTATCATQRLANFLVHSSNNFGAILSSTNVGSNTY
Procedure: as §1

RIN5fm cells = test: MTT reduction assay: effects of peptides on formation of cell-damaging IAPP assemblies (incl. IC50 titrations); format: cell-based, rat; conditions: for IC50: 24 h; for effect on IAPP cytotoxicity (in words): MTT reduction in RIN5fm cells, solutions of the ThT assay
Procedure: Briefly, cells were cultivated and platted in 96-well plates as described in ref. [68]. Aliquots of solutions used for the ThT binding assays (see “ThT binding assays”) were diluted with cell medium at the indicated incubation time points (24 h or 7 days) and added to the cells at the indicated final concentrations. Following incubation with the cells for ~20 h (37 °C, humidified atmosphere, 5% CO2), cell damage was assessed by measuring cellular MTT reduction as described[32],[68]. IC50 values were determined as described[20],[21],[32].

PC12 cells = test: MTT reduction assay: cytotoxicity of preformed (TAMRA-)Aβ42 oligomers with or without Nle3-VF; format: cell-based; conditions: TAMRA-oAb42 (2 h); mean, n = 4
Procedure: Preformed (TAMRA-)oAβ42 and their mixtures with Nle3-VF were then incubated for an additional 2 h (37 °C, shaking 500 rpm; conditions as for the ThT binding assay). Incubation with the cells and the MTT reduction assay were performed as above. Statistical analysis (Supplementary Fig. 27d) was performed by one-way ANOVA and Bonferroni (software: OriginPro 2021).

[3] = Table 2, mean values of the 3 curves, read-out: App. Kd
[4] = app. KD (±SD) of ACM/Aβ42 interactions, titration of FITC-Aβ42 (5 nM; pH 7.4) with ACMs, means (±SD) from three binding curves
[5] = SF 6, Mean values of the 3 curves, read-out: App. Kd
[6] = titration of Fluos-IAPP (5 nM; pH 7.4, 10 mM sodium phosphate, 1% HFIP) with ACMs, 1/1 binding model, means (±SD) from three binding curves

T1 sequence (P05067 672-713 limits assumed): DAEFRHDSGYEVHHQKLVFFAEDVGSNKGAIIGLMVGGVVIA

Kd [1, 3] [nM]	Kd [1, 4] [nM]	Kd [2, 5] [nM]	Kd [2, 6] [nM]	Kd ([1]; fluorescence titration, emission at 519 nm, Mean values of the 3 curves, read-out: App. Kd) [nM]	Kd ([2]; Fig. 2a right panel, mean values of the 3 curves, read-out: App. Kd) [nM]	Molecule	IC50 (RIN5fm cells) [nM]	effect on IAPP cytotoxicity (in words) (RIN5fm cells)	Kd [2] [nM]	MTT reduction (% control) (PC12 cells)
161	161	15	15	–	–	CCCC[C@H](NC(=O)[C@H](CC(C)C)NC(=O)CNC(=O)[C@@H](NC(=O)[C@@H](NC(=O)[C@H](C)NC(=O)CNC(=O)[C@H](CCCCN)NC(=O)[C@H](CC(N)=O)NC(=O)[C@H](Cc1ccccc1)NC(=O)[C@H](Cc1ccccc1)NC(=O)[C@H](Cc1ccccc1)NC(=O)[C@H](CC(=O)O)NC(=O)[C@H](CCC(=O)O)NC(=O)[C@H](C)NC(=O)[C@H](Cc1ccccc1)N(C)C(=O)[C@H](Cc1ccccc1)NC(=O)[C@H](C(C)C)N(C)C(=O)[C@H](CC(C)C)NC(=O)[C@H](CCCCN)NC(=O)[C@@H](N)CCC(N)=O)[C@@H](C)CC)[C@@H](C)CC)C(=O)N[C@H](C(=O)NCC(=O)NCC(=O)N[C@H](C(=O)N[C@H](C(=O)O)C(C)C)C(C)C)C(C)C [F3-VF] (H-QKL[NMeV]F[NMeF]AEDFFFNKGAIIGL[Nle]VGGVV-OH)	78.5	–	–	–
38	38	77.3	77.3	–	–	CCCC[C@H](NC(=O)[C@H](CC(C)C)NC(=O)CNC(=O)[C@@H](NC(=O)[C@@H](NC(=O)[C@H](C)NC(=O)CNC(=O)[C@H](CCCCN)NC(=O)[C@H](CC(N)=O)NC(=O)[C@H](CC(C)C)NC(=O)[C@H](CC(C)C)NC(=O)[C@H](CC(C)C)NC(=O)[C@H](CC(=O)O)NC(=O)[C@H](CCC(=O)O)NC(=O)[C@H](C)NC(=O)[C@H](Cc1ccccc1)N(C)C(=O)[C@H](Cc1ccccc1)NC(=O)[C@H](C(C)C)N(C)C(=O)[C@H](CC(C)C)NC(=O)[C@H](CCCCN)NC(=O)[C@@H](N)CCC(N)=O)[C@@H](C)CC)[C@@H](C)CC)C(=O)N[C@H](C(=O)NCC(=O)NCC(=O)N[C@H](C(=O)N[C@H](C(=O)O)C(C)C)C(C)C)C(C)C [L3-VF] (H-QKL[NMeV]F[NMeF]AEDLLLNKGAIIGL[Nle]VGGVV-OH)	112	–	–	–
431	431	37.6	37.6	–	–	CCCC[C@H](NC(=O)[C@H](CC(C)C)NC(=O)CNC(=O)[C@@H](NC(=O)[C@@H](NC(=O)[C@H](C)NC(=O)CNC(=O)[C@H](CCCCN)NC(=O)[C@H](CC(N)=O)NC(=O)[C@H](Cc1ccccc1)NC(=O)[C@H](Cc1ccccc1)NC(=O)[C@H](Cc1ccccc1)NC(=O)[C@H](CC(=O)O)NC(=O)[C@H](CCC(=O)O)NC(=O)[C@H](C)NC(=O)[C@H](Cc1ccccc1)NC(=O)[C@H](Cc1ccccc1)N(C)C(=O)[C@@H](NC(=O)[C@H](CC(C)C)N(C)C(=O)[C@H](CCCCN)NC(=O)[C@@H](N)CCC(N)=O)C(C)C)[C@@H](C)CC)[C@@H](C)CC)C(=O)N[C@H](C(=O)NCC(=O)NCC(=O)N[C@H](C(=O)N[C@H](C(=O)O)C(C)C)C(C)C)C(C)C [F3-LF] (H-QK[NMeL]V[NMeF]FAEDFFFNKGAIIGL[Nle]VGGVV-OH)	41.7	–	–	–
–	14.5	–	–	14.5	69.5	CCCC[C@H](NC(=O)[C@H](CC(=O)O)NC(=O)[C@H](CCC(=O)O)NC(=O)[C@H](C)NC(=O)[C@H](Cc1ccccc1)N(C)C(=O)[C@H](Cc1ccccc1)NC(=O)[C@H](C(C)C)N(C)C(=O)[C@H](CC(C)C)NC(=O)[C@H](CCCCN)NC(=O)[C@@H](N)CCC(N)=O)C(=O)N[C@@H](CCCC)C(=O)N[C@@H](CCCC)C(=O)N[C@@H](CC(N)=O)C(=O)N[C@@H](CCCCN)C(=O)NCC(=O)N[C@@H](C)C(=O)N[C@H](C(=O)N[C@H](C(=O)NCC(=O)N[C@@H](CC(C)C)C(=O)N[C@@H](CCCC)C(=O)N[C@H](C(=O)NCC(=O)NCC(=O)N[C@H](C(=O)N[C@H](C(=O)O)C(C)C)C(C)C)C(C)C)[C@@H](C)CC)[C@@H](C)CC [Nle3-VF] (H-QKL[NMeV]F[NMeF]AED[Nle][Nle][Nle]NKGAIIGL[Nle]VGGVV-OH)	65	fully suppressed	–	–
2.64	–	143	–	–	–	CCCC[C@H](NC(=O)[C@H](CC(C)C)NC(=O)CNC(=O)[C@@H](NC(=O)[C@@H](NC(=O)[C@H](C)NC(=O)CNC(=O)[C@H](CCCCN)NC(=O)[C@H](CC(N)=O)NC(=O)[C@H](CC(C)C)NC(=O)[C@H](CC(C)C)NC(=O)[C@H](CC(C)C)NC(=O)[C@H](CC(=O)O)NC(=O)[C@H](CCC(=O)O)NC(=O)[C@H](C)NC(=O)[C@H](Cc1ccccc1)NC(=O)[C@H](Cc1ccccc1)N(C)C(=O)[C@@H](NC(=O)[C@H](CC(C)C)N(C)C(=O)[C@H](CCCCN)NC(=O)[C@@H](N)CCC(N)=O)C(C)C)[C@@H](C)CC)[C@@H](C)CC)C(=O)N[C@H](C(=O)NCC(=O)NCC(=O)N[C@H](C(=O)N[C@H](C(=O)O)C(C)C)C(C)C)C(C)C [L3-LF] (H-QK[NMeL]V[NMeF]FAEDLLLNKGAIIGL[Nle]VGGVV-OH)	133	fully suppressed	–	–
–	–	–	–	–	–	TAMRA-oAb42	–	–	–	66.7213

Molecule	Kd [1, 3] [nM]	Kd [1, 4] [nM]	Kd [2, 5] [nM]	Kd [2, 6] [nM]	Kd ([1]; fluorescence titration, emission at 519 nm, Mean values of the 3 curves, read-out: App. Kd) [nM]	Kd ([2]; Fig. 2a right panel, mean values of the 3 curves, read-out: App. Kd) [nM]	IC50 (RIN5fm cells) [nM]	effect on IAPP cytotoxicity (in words) (RIN5fm cells)	Kd [2] [nM]	MTT reduction (% control) (PC12 cells)
CCCC[C@H](NC(=O)[C@H](CC(=O)O)NC(=O)[C@H](CCC(=O)O)NC(=O)[C@H](C)NC(=O)[C@H](Cc1ccccc1)NC(=O)[C@H](Cc1ccccc1)N(C)C(=O)[C@@H](NC(=O)[C@H](CC(C)C)N(C)C(=O)[C@H](CCCCN)NC(=O)[C@@H](N)CCC(N)=O)C(C)C)C(=O)N[C@@H](CCCC)C(=O)N[C@@H](CCCC)C(=O)N[C@@H](CC(N)=O)C(=O)N[C@@H](CCCCN)C(=O)NCC(=O)N[C@@H](C)C(=O)N[C@H](C(=O)N[C@H](C(=O)NCC(=O)N[C@@H](CC(C)C)C(=O)N[C@@H](CCCC)C(=O)N[C@H](C(=O)NCC(=O)NCC(=O)N[C@H](C(=O)N[C@H](C(=O)O)C(C)C)C(C)C)C(C)C)[C@@H](C)CC)[C@@H](C)CC [Nle3-LF] (H-QK[NMeL]V[NMeF]FAED[Nle][Nle][Nle]NKGAIIGL[Nle]VGGVV-OH)	11.1	11.1	55.4	–	–	–	82.1	fully suppressed	55.4	–
